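Values below derive from 48-hour exposures of cells grown in 96-well plates, with endpoints linearly interpolated between the two concentrations bracketing the appropriate inhibition level. Here, GI50 denotes the concentration required for 50% inhibition of growth.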 Activity calls are given as the source filed them. Rule as the data show it: active = GI50 up to about 1.1 µM and inactive = higher. Bounds are passed on as bounds.

Some test systems named below: MDA-N; OVCAR-8; SW-620; OVCAR-4; BT-549; SNB-75; Malme-3M; EKVX; LOX IMVI; SF-295; HCT-116; Hs-578T; 786-0; MCF7; T47D; SK-OV-3; NCI-H23; HCC 2998; KM12.
What all share (assay): growth of human tumour cells (NCI), 48 h

As to `Cn1cnc([N+](=O)[O-])c1[Se]c1nc(N)nc2c1ncn2C1OC(CO)C(O)C1O` (stereo not given), the GI50 with MDA-N, in the assay with OVCAR-8, in the assay on SW-620, in the assay with OVCAR-4, with BT-549 and in the assay with SNB-75 was > 100 µM (inactive) each time. Besides, the GI50 in the assay with Malme-3M, with EKVX, in the assay on LOX IMVI, with SF-295, with HCT-116 and in the assay with Hs-578T was > 100 µM (inactive) throughout. Also, the GI50 in the assay on 786-0, in the assay on MCF7, in the assay on T47D, with SK-OV-3, in the assay on NCI-H23 and in the assay with HCC 2998 was > 100 µM (inactive) in each case. Moreover, in the assay on KM12, the GI50 was > 100 µM (inactive).
On to `CN(Cc1cnc2nc(N)nc(N)c2n1)c1ccc(C(=O)NCCS(=O)(=O)O)cc1`, for which the GI50 in the assay on MDA-N, in the assay with OVCAR-8, in the assay with SW-620, in the assay with OVCAR-4, in the assay with BT-549 and in the assay with SNB-75 was > 100 µM (inactive) each time. Moreover, the GI50 in the assay with Malme-3M was > 100 µM (inactive); with EKVX, > 100 µM (inactive); with LOX IMVI, > 100 µM (inactive); in the assay on SF-295, > 100 µM (inactive); with HCT-116 it was 91.6 µM (inactive); in the assay on Hs-578T it was > 100 µM (inactive). The GI50 in the assay with 786-0, with MCF7, in the assay with T47D, with SK-OV-3, in the assay on NCI-H23 and with HCC 2998 was > 100 µM (inactive) in each case. In the assay on KM12, the GI50 was > 100 µM (inactive).
`C=CC[C@@]1(OC(C)=O)C(=O)C(=O)OC1C1COC(C)(C)O1` (stereo not given in full): the GI50 with MDA-N was 16.5 µM (inactive); with OVCAR-8, 20.1 µM (inactive); in the assay on SW-620, 11.9 µM (inactive); in the assay with OVCAR-4 it was 18.6 µM (inactive); with BT-549, 21.1 µM (inactive); with SNB-75 it was 31.8 µM (inactive). The GI50 in the assay on Malme-3M was 17.2 µM (inactive); in the assay with EKVX it was 16.4 µM (inactive); in the assay on LOX IMVI it was 6.17 µM (inactive); in the assay with SF-295 it was 32.4 µM (inactive); in the assay with HCT-116, 13.1 µM (inactive); with Hs-578T, 31 µM (inactive). Further, the GI50 with 786-0 is 11.7 µM (inactive); in the assay with MCF7 it was 17.3 µM (inactive); in the assay with T47D, 16 µM (inactive); with SK-OV-3, 42.5 µM (inactive); in the assay with NCI-H23, 20.3 µM (inactive); with HCC 2998, 20.7 µM (inactive). The GI50 in the assay on KM12 was 15.7 µM (inactive).
Turning to `COc1ccc(SCc2cc(OC)c(OC)c(OC)c2)cc1OC`, the GI50 in the assay on MDA-N is 24.5 µM (inactive); in the assay with OVCAR-8, > 80.2 µM (inactive); in the assay on SW-620, 82.6 µM (inactive); in the assay on OVCAR-4, 22 µM (inactive); with BT-549, 30 µM (inactive); with SNB-75, 17.7 µM (inactive). Moreover, the GI50 in the assay with Malme-3M was 55.2 µM (inactive); with EKVX, 43.4 µM (inactive); with LOX IMVI it was 51.4 µM (inactive); in the assay on SF-295, 45.7 µM (inactive); with HCT-116, 61.7 µM (inactive); in the assay on Hs-578T, 54 µM (inactive). Also, the GI50 is > 100 µM (inactive) with 786-0; 28.8 µM (inactive) with MCF7; 13.4 µM (inactive) in the assay with T47D; 50.1 µM (inactive) in the assay on SK-OV-3; 27.5 µM (inactive) with NCI-H23; 50.9 µM (inactive) in the assay with HCC 2998. Besides, the GI50 in the assay on KM12 was 37.5 µM (inactive).
Take `C=CCc1cc(C=C(C#N)C#N)cc(OC)c1O`: the GI50 was > 100 µM (inactive) with MDA-N; > 100 µM (inactive) in the assay with OVCAR-8; 81.7 µM (inactive) in the assay with SW-620; > 100 µM (inactive) in the assay on OVCAR-4; 90.4 µM (inactive) in the assay with BT-549; 55.5 µM (inactive) in the assay on SNB-75. In addition, the GI50 in the assay on Malme-3M is > 100 µM (inactive); in the assay with EKVX, > 100 µM (inactive); in the assay on LOX IMVI it was 50.2 µM (inactive); in the assay on SF-295, > 100 µM (inactive); in the assay on HCT-116, > 100 µM (inactive); in the assay on Hs-578T, > 100 µM (inactive). The GI50 with 786-0 is > 100 µM (inactive); with MCF7 it was 53.1 µM (inactive); with T47D, 38.9 µM (inactive); in the assay with SK-OV-3, > 100 µM (inactive); in the assay with NCI-H23 it was 79.8 µM (inactive); in the assay on HCC 2998, > 10 µM (inactive). In the assay with KM12, the GI50 is > 100 µM (inactive).
For the compound `CN1CN(c2ccccc2)C2(CCN(CCCSc3ccccc3NC(=O)/C=C/c3ccccc3)CC2)C1=O`, the GI50 in the assay on MDA-N is 2.57 µM (inactive); in the assay on OVCAR-8 it was 6.19 µM (inactive); in the assay with SW-620 it was 6.25 µM (inactive); in the assay on OVCAR-4 it was 3.59 µM (inactive); with BT-549, 2.54 µM (inactive); with SNB-75, 5.52 µM (inactive). Also, the GI50 with Malme-3M is 2.15 µM (inactive); with EKVX, 4.98 µM (inactive); in the assay on LOX IMVI, 2.25 µM (inactive); with SF-295, 3.3 µM (inactive); in the assay with HCT-116, 2.5 µM (inactive); in the assay with Hs-578T it was 3.41 µM (inactive). In addition, the GI50 was 7.03 µM (inactive) in the assay on 786-0; 13 µM (inactive) in the assay on MCF7; 4.01 µM (inactive) in the assay on T47D; 5.92 µM (inactive) in the assay with SK-OV-3; 4.61 µM (inactive) with NCI-H23; 4.84 µM (inactive) with HCC 2998. Also, the GI50 in the assay with KM12 was 4.59 µM (inactive).
For the compound `COc1ccc(-c2cc(=O)c3c(O)c(OC)c(O)cc3o2)cc1O`, the GI50 in the assay with MDA-N is 0.406 µM (active); with OVCAR-8, 9.55 µM (inactive); in the assay on SW-620 it was 3.13 µM (inactive); in the assay on OVCAR-4, 50.5 µM (inactive); in the assay with BT-549, 19.3 µM (inactive); in the assay with SNB-75, 3.65 µM (inactive). Besides, the GI50 in the assay with Malme-3M is 1.3 µM (inactive); with EKVX, 9.25 µM (inactive); with LOX IMVI, 3.51 µM (inactive); in the assay with SF-295, 2.83 µM (inactive); with HCT-116, 3.48 µM (inactive); with Hs-578T, 3.08 µM (inactive). In addition, the GI50 in the assay on 786-0 is 4.95 µM (inactive); with MCF7 it was 3.79 µM (inactive); in the assay on T47D, 5.94 µM (inactive); in the assay on SK-OV-3 it was 6.28 µM (inactive); in the assay on NCI-H23, 17.7 µM (inactive); in the assay with HCC 2998, 6.12 µM (inactive). For the same compound, in the assay on KM12, the GI50 is 3.18 µM (inactive).
`Clc1ccc(/C(=C\c2ccccc2)Cn2ccnc2)cc1`: the GI50 was 14.9 µM (inactive) in the assay with MDA-N; 16.1 µM (inactive) with OVCAR-8; 29.5 µM (inactive) in the assay with SW-620; 30.5 µM (inactive) in the assay with OVCAR-4; 14.4 µM (inactive) in the assay on BT-549; 26.2 µM (inactive) in the assay with SNB-75. Also, the GI50 with Malme-3M is 10.2 µM (inactive); with EKVX, 21.9 µM (inactive); with LOX IMVI, 8.83 µM (inactive); in the assay on SF-295, 17.9 µM (inactive); in the assay with HCT-116 it was 14.8 µM (inactive); in the assay on Hs-578T, > 100 µM (inactive). In addition, the GI50 in the assay on 786-0 is 17.4 µM (inactive); in the assay on MCF7, 16.1 µM (inactive); with T47D, 19.2 µM (inactive); in the assay with SK-OV-3, 16.5 µM (inactive); in the assay with NCI-H23, 28.9 µM (inactive); with HCC 2998, 21.3 µM (inactive). The GI50 with KM12 is 4.93 µM (inactive).
Take `CCOP(=O)(OCC)/C(=C/c1ccccc1)CC(C)=O`: the GI50 in the assay with MDA-N, in the assay with OVCAR-8, in the assay with SW-620, in the assay with OVCAR-4, with BT-549 and with SNB-75 was > 100 µM (inactive) each time. The GI50 in the assay with Malme-3M, with EKVX, with LOX IMVI, in the assay with SF-295, in the assay on HCT-116 and with Hs-578T was > 100 µM (inactive) in each case. The GI50 with 786-0, in the assay on MCF7, with T47D, in the assay with SK-OV-3, in the assay with NCI-H23 and in the assay with HCC 2998 was > 100 µM (inactive) throughout. Also, the GI50 in the assay with KM12 was > 100 µM (inactive).
Take `C=CCN1C(=O)CNC1=S`: the GI50 in the assay on MDA-N, with OVCAR-8, in the assay on SW-620, in the assay on OVCAR-4, in the assay with BT-549 and in the assay with SNB-75 was > 100 µM (inactive) each time. The GI50 with Malme-3M, in the assay on EKVX, in the assay with LOX IMVI, in the assay on SF-295, in the assay with HCT-116 and with Hs-578T was > 100 µM (inactive) in each case. In addition, the GI50 with 786-0, in the assay with MCF7, with T47D, in the assay on SK-OV-3, in the assay with NCI-H23 and with HCC 2998 was > 100 µM (inactive) in each case. Moreover, the GI50 in the assay with KM12 is > 100 µM (inactive).

(Values after ChEMBL document CHEMBL1201862, “PubChem BioAssay data set” (2004).)
